According to the NIST ThermoML archive (doi:10.1016/j.jct.2011.10.023):

Conditions: Liquid, Vibrating tube method

CCCCO [butan-1-ol]
mass density [kg/m3]
Conditions | 278.15 K | 288.15 K | 298.15 K | 308.15 K | 318.15 K | 328.15 K | 338.15 K | 348.15 K | 358.15 K
100 kPa | 820.9 | 813.5 | 805.8 | 798 | 790.3 | 782.3 | 774 | 765.6 | 756.6
1000 kPa | 821.6 | 814.1 | 806.6 | 798.8 | 791.1 | 783.1 | 774.9 | 766.3 | 757.7
5000 kPa | 824.4 | 817 | 809.6 | 802 | 794.5 | 786.7 | 778.7 | 770.5 | 761.7
10000 kPa | 827.7 | 820.5 | 813.3 | 805.9 | 798.5 | 790.9 | 783.2 | 775.3 | 767
15000 kPa | 830.9 | 823.9 | 816.8 | 809.5 | 802.4 | 795 | 787.4 | 779.8 | 771.7
20000 kPa | 834 | 827.2 | 820.2 | 813 | 805.6 | 798.8 | 791.4 | 784 | 776.2
25000 kPa | 837 | 830.3 | 823.5 | 816.4 | 809.5 | 802.4 | 795.3 | 788 | 780.4
30000 kPa | 839.9 | 833.2 | 826.6 | 819.7 | 812.9 | 806 | 799 | 791.8 | 784.4
35000 kPa | 842.7 | 836.2 | 829.6 | 822.8 | 816.1 | 809.4 | 802.5 | 795.6 | 788.3
40000 kPa | 845.4 | 839 | 832.6 | 825.9 | 819.3 | 812.7 | 805.9 | 799.1 | 792
45000 kPa | 848.1 | 841.7 | 835.4 | 828.8 | 822.4 | 815.8 | 809.2 | 802.5 | 795.5
50000 kPa | 850.7 | 844.4 | 838.2 | 831.7 | 825.3 | 818.9 | 812.4 | 805.8 | 799
55000 kPa | 853.2 | 846.8 | 840.9 | 834.5 | 828.2 | 821.8 | 815.4 | 809 | 802.3
60000 kPa | 855.6 | 849.4 | 843.3 | 837 | 830.9 | 824.6 | 818.4 | 811.9 | 805.3

CCCO [propan-1-ol]
mass density [kg/m3]
Conditions | 278.15 K | 288.15 K | 298.15 K | 308.15 K | 318.15 K | 328.15 K | 338.15 K | 348.15 K | 358.15 K
100 kPa | 815.7 | 807.8 | 799.8 | 791.6 | 783.4 | 775 | 766.3 | 757.2 | 747.7
1000 kPa | 816.4 | 808.5 | 800.5 | 792.4 | 784.2 | 775.9 | 767.2 | 758.3 | 748.8
5000 kPa | 819.4 | 811.6 | 803.8 | 795.8 | 787.9 | 779.7 | 771.3 | 762.6 | 753.5
10000 kPa | 822.8 | 815.3 | 807.6 | 800.1 | 792.2 | 784.2 | 776.1 | 767.7 | 758.8
15000 kPa | 826.2 | 818.9 | 811.4 | 803.8 | 796.3 | 788.5 | 780.6 | 772.5 | 764
20000 kPa | 829.4 | 822.3 | 814.9 | 807.5 | 800.2 | 792.6 | 784.9 | 777 | 768.7
25000 kPa | 832.6 | 825.5 | 818.3 | 811.1 | 803.9 | 796.5 | 789 | 781.3 | 773.3
30000 kPa | 835.7 | 828.7 | 821.6 | 814.5 | 807.5 | 800.2 | 792.9 | 785.4 | 777.5
35000 kPa | 838.6 | 831.8 | 824.8 | 817.8 | 810.9 | 803.8 | 796.6 | 789.3 | 781.6
40000 kPa | 841.5 | 834.7 | 827.9 | 821 | 814.2 | 807.2 | 800.2 | 793 | 785.5
45000 kPa | 844.3 | 837.6 | 830.9 | 824.1 | 817.5 | 810.6 | 803.7 | 796.6 | 789.3
50000 kPa | 847.1 | 840.4 | 833.8 | 827.1 | 820.5 | 813.8 | 807 | 800.1 | 792.9
55000 kPa | 849.7 | 843.1 | 836.6 | 830 | 823.6 | 816.9 | 810.3 | 803.5 | 796.4
60000 kPa | 852.1 | 845.6 | 839.2 | 832.7 | 825.8 | 819.8 | 813.4 | 806.5 | 799.6
